The results in this text go back to ChEMBL document CHEMBL1201862, “PubChem BioAssay data set” (2004).

The structures appear in SMILES notation.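 Interpolation was linear, between the two tested concentrations surrounding the appropriate level; five concentrations were tested over 48 hours in 96-well plates. Here, GI50 denotes the concentration required for 50% inhibition of growth.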 Activity calls are given as the source filed them. Rule as the data show it: active = GI50 up to about 1.1 µM and inactive = higher. Bounds are passed on as bounds.

Test systems include RXF 631; LXFL 529; DMS-273; HOP-18; SNB-78; XF498; DMS-114; DLD-1; Hs-578T.
Test in all cases: NCI-60 cell line screen, 48 h

Take `CC[C@@]1(O)C(=O)OCc2c1c(Cl)c1n(c2=O)Cc2cc3ccccc3nc2-1`: the GI50 was 2.48 µM (inactive) in the test on RXF 631; 8.15 µM (inactive) with LXFL 529; 0.605 µM (active) with DMS-273; 3.21 µM (inactive) in the test with HOP-18; 7.18 µM (inactive) in the test with SNB-78; 3.07 µM (inactive) with XF498. The GI50 with DMS-114 is 1.35 µM (inactive); with DLD-1 it was 6.68 µM (inactive); with Hs-578T it was 31.4 µM (inactive).

Take `N#CC1=C(c2ccccc2)OC2(N)OC(c3ccccc3)=C(C#N)C12C#N` (configuration not stated): the GI50 in the test with RXF 631 was > 100 µM (inactive); in the test on LXFL 529, 74 µM (inactive); with DMS-273, > 100 µM (inactive); in the test on HOP-18 it was 21.6 µM (inactive); in the test with SNB-78, > 100 µM (inactive); in the test on XF498, > 100 µM (inactive). For the same compound, the values for the GI50 with DMS-114 and in the test on DLD-1 were 51.5 µM (inactive) and > 100 µM (inactive), respectively.

Consider `COc1cccc(C2C(C(=O)Nc3cc(=O)n(C)c(=O)n3C)=C(C)NC(C)=C2C(=O)Nc2cc(=O)n(C)c(=O)n2C)c1O`, for which the GI50 in the test with RXF 631, with LXFL 529, in the test on SNB-78, in the test on XF498, in the test with DMS-114 and in the test with DLD-1 was > 100 µM (inactive) each time.

On to `CN(C(=O)C12C3C4C5C3C1(C(=O)O)C5C42)C(C)(C)C` (configuration not stated), for which the GI50 with RXF 631 was > 100 µM (inactive); in the test on LXFL 529 it was 74.8 µM (inactive); with DMS-273 it was 16.5 µM (inactive); in the test on HOP-18, > 100 µM (inactive); in the test with SNB-78, > 100 µM (inactive); in the test with XF498, > 100 µM (inactive). The figures for the GI50 in the test on DMS-114 and in the test on DLD-1 were 28.9 µM (inactive) and 23.7 µM (inactive), respectively.

On to `CCCC(S(=O)(=O)c1ccccc1)S(=O)(=O)c1ccccc1`, for which the GI50 with RXF 631, in the test on LXFL 529, with DMS-273, in the test with SNB-78, in the test with XF498 and in the test with DMS-114 was > 100 µM (inactive) in each case. Besides, the GI50 in the test with DLD-1 is > 100 µM (inactive).

For the compound `CCOC(=O)[C@H]1Nc2ccc(O)cc2C2c3ccccc3CC21` (some centres not stated), the GI50 is > 100 µM (inactive) with RXF 631; 42.6 µM (inactive) with LXFL 529; 59.2 µM (inactive) with DMS-273; > 100 µM (inactive) with HOP-18; > 100 µM (inactive) in the test on SNB-78; 56.2 µM (inactive) with DMS-114. The GI50 in the test with DLD-1 was 70.8 µM (inactive).

Regarding `Cc1ccc(S(=O)(=O)C2CC2(Cl)Cl)cc1` (configuration not stated), the GI50 with RXF 631 is 20.9 µM (inactive); in the test on LXFL 529, 18.9 µM (inactive); with DMS-273, 32.5 µM (inactive); with XF498, 21.2 µM (inactive); in the test on DMS-114, 19.7 µM (inactive); in the test with DLD-1 it was 24.2 µM (inactive).

In the case of `C[C@]12CCNC(=O)C=C1CC[C@@H]1C2CC[C@@]2(C)C1CC[C@@H]2OC(=O)COc1ccc(N(CCCl)CCCl)cc1` (some centres not stated), the GI50 in the test on RXF 631 is 4.71 µM (inactive); in the test with LXFL 529 it was 7.57 µM (inactive); in the test on DMS-273 it was 0.638 µM (active); in the test with HOP-18, 18.8 µM (inactive); in the test with SNB-78, 28.6 µM (inactive); in the test with XF498, 1.35 µM (inactive). For the same compound, the figures for the GI50 in the test with DLD-1 and in the test on Hs-578T were 4.56 µM (inactive) and 17.7 µM (inactive), respectively.

For the compound `COC(=O)CCC(=O)CC(=O)C(=O)Nc1c(Cl)cc([N+](=O)[O-])cc1Cl`, the GI50 in the test on RXF 631, in the test with LXFL 529, in the test on DMS-273, in the test on HOP-18, in the test with SNB-78 and with XF498 was > 100 µM (inactive) in each case. For the same compound, the GI50 was 23.5 µM (inactive) in the test with DMS-114 and 65.6 µM (inactive) in the test with DLD-1.

For the compound `COc1c(OC2OC(CO)C(O)C(O)C2O)cc2c(c1OC)-c1ccc(OC)c(=O)cc1[C@@H](NC(C)=O)CC2` (some centres not stated), the GI50 in the test on RXF 631 is > 100 µM (inactive); in the test on LXFL 529, 54.1 µM (inactive); in the test with DMS-273, > 100 µM (inactive); in the test on HOP-18, > 100 µM (inactive); in the test with SNB-78, 61 µM (inactive); in the test on XF498, 29.3 µM (inactive). Further, the figures for the GI50 with DMS-114 and in the test on DLD-1 were 44.7 µM (inactive) and > 100 µM (inactive), respectively.

Turning to `O=[N+]([O-])c1ccc(C2CC(c3ccccc3Cl)=Nc3ccccc3[S+]2[O-])cc1` (configuration not stated), the GI50 in the test on RXF 631 is 5.27 µM (inactive); in the test on LXFL 529, 1.79 µM (inactive); in the test on DMS-273 it was 2.95 µM (inactive); with HOP-18, 14.1 µM (inactive); in the test on SNB-78, 13.1 µM (inactive); with XF498, 5.89 µM (inactive). For the same compound, the figures for the GI50 with DMS-114, in the test with DLD-1 and in the test with Hs-578T were 2.05 µM (inactive), 2.06 µM (inactive) and 2.75 µM (inactive), respectively.

Regarding `Cn1c2ccccc2c(=O)c2c(O)cc3c(c21)CC(C1(C)CO1)O3` (configuration not stated), the GI50 is 3.61 µM (inactive) in the test on RXF 631; 0.229 µM (active) in the test on LXFL 529; 21.9 µM (inactive) with DMS-273; 32.3 µM (inactive) in the test with HOP-18; 1.88 µM (inactive) in the test on XF498; 2.13 µM (inactive) in the test on DMS-114. For the same compound, the results for the GI50 in the test on DLD-1 and in the test on Hs-578T were 3.64 µM (inactive) and 2 µM (inactive), respectively.

For the compound `Cc1ccc(S(=O)(=O)NC2(C=O)CCC(C(C)(C)C)CC2)cc1` (configuration not stated), the GI50 was 31.8 µM (inactive) in the test with RXF 631; > 100 µM (inactive) in the test with LXFL 529; 27.7 µM (inactive) in the test on DMS-273; 29.2 µM (inactive) in the test on HOP-18; > 100 µM (inactive) with SNB-78; 43.8 µM (inactive) in the test on XF498. The results for the GI50 with DMS-114 and in the test on DLD-1 were 20.4 µM (inactive) and 35.2 µM (inactive), respectively.

Turning to `NC1=NCC(c2ccccn2)C1c1ccc(F)cc1` (configuration not stated), the GI50 with RXF 631, in the test on LXFL 529, in the test with HOP-18, in the test with SNB-78, in the test with XF498 and in the test with DMS-114 was > 100 µM (inactive) throughout. Besides, in the test on DLD-1, the GI50 is > 100 µM (inactive).
